According to patent US20170057955A1, “Pyridopyrimidinone Compounds for Modulating the Catalytic Activity of Histone Lysine Demethylases (KDMs)” (Dong-A Socio Holdings Co., Ltd., priority 2015, published 2017):

Each compound was assayed against T1, Recombinant human JARID1B/KDM5B (Homo sapiens, UniProt Q9UGL1) (assay: LANCE Ultra TR-FRET JARID1B (KDM5B) demethylase inhibition assay). Settings: 0.1 uM of test-compounds, FLAG-JARID1B, 500 nM biotinylated H3K4me3 peptide substrate, 30 min at room temperature.
T1 construct: purchased Active Motif 31432; host or cells: Sf9 insect cells
T1 sequence (Q9UGL1 whole entry): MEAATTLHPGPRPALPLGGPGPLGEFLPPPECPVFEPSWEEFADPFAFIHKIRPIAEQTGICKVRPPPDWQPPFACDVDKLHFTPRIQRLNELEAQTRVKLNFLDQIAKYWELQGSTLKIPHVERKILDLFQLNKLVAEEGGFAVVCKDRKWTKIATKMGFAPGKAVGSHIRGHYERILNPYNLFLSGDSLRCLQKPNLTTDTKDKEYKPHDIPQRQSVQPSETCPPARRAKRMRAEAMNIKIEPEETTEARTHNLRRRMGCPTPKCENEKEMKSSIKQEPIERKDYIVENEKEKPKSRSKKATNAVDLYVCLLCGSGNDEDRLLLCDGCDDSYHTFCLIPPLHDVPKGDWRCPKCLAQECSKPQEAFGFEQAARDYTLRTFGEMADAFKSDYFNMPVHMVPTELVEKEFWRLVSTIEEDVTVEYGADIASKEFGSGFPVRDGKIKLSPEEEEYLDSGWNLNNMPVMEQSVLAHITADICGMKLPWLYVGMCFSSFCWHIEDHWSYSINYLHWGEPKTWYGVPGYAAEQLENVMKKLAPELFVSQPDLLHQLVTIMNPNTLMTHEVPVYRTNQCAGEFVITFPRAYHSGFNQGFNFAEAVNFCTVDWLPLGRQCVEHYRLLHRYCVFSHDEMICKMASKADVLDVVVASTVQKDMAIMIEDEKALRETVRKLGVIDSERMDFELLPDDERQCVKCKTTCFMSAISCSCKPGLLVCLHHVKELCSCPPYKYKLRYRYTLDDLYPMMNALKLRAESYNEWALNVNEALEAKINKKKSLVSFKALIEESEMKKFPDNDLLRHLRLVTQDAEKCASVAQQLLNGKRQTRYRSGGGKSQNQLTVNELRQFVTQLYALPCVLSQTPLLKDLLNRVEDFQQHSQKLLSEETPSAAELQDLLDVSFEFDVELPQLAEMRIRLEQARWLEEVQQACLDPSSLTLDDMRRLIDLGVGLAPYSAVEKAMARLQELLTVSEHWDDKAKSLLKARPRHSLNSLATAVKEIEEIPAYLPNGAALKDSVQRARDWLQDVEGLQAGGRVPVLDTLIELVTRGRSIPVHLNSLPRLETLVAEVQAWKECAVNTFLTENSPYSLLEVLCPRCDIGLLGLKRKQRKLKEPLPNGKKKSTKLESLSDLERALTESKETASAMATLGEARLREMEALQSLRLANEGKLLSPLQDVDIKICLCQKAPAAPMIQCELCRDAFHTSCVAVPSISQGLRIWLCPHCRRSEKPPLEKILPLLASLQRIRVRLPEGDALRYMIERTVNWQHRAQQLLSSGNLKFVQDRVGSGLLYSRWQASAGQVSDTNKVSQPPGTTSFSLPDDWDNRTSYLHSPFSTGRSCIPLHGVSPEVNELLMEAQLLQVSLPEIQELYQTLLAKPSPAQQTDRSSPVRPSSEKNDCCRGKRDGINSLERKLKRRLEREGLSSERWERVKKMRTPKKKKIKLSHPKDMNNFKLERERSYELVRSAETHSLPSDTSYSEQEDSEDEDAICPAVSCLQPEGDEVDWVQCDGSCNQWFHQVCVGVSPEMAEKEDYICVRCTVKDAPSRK
Format: biochemical
From the text: FLAG-tagged JARID1B (also known as KDM5B) protein was screened against 49 compounds. For this compound screening, LANCE Ultra time-resolved fluorescence resonance energy transfer (TR-FRET) assay was employed using a europoium (Eu)-labeled antibody that can specifically recognize mono- or dimethylated peptides (H3K4me2/1) and ULight-streptavidin (ULight-SA), a small molecule fluorescent dye. When irradiated at 340 nm, the energy from the Eu donor is transferred to the ULight acceptor dye which, in turn, emits light primarily at 665 nm. The ratio between the intensity of primary emission at 665 nm and that of secondary emission at […] was used to quantify the level of lysine methylation. As JARID1B removes more methyl moieties from tri-methylated substrate peptides (H3K4me3), the ratio increases until the enzyme reaction is terminated. In case, therefore, the compounds disrupt the enzymatic activity completely, the ratio becomes equal to a background value.
Recombinant human JARID1B/KDM5B (accession number NP_006609) of molecular weight 179.9 KDa was expressed in Sf9 insect cells and contains an N-terminal FLAG tag. The enzyme was obtained from Active Motif (Catalog No. 31432). The tri-methylated histone substrate peptide of purity greater than 95% was a synthetic peptide in which the first 21 amino acids correspond to the human histone H3 sequence with three extra amino acids and a biotin motif (GGK-biotin) linked to the C-terminus [sequence: ART-K(Me3)-QTARKSTGGKAPRKQLA-GGK-biotin-OH], (AnaSpec, Fremont, Calif. Catalog. No. ANA-1413). The reference inhibitor compound tranylcypromine (or trans-2-phenylcyclopropylamine hydrochloride, also known as, 2-PCPA) was purchased from Sigma (St. Louis, Mo. Cat. no. P8511). ULight-labeled streptavidin (ULight-SA, Catalog no. TRF0102), Eu-W1024-labeled anti-methyl-Histone H3 Lysine 4 (H3K4me1-2) Antibody (Catalog no. TRF0402), and LANCE detection buffer 10× (Catalog no. CR97-100) were obtained from PerkinElmer (Montreal, Quebec, Canada). The TR-FRET experiments were carried out in white, low-volume 384-wellplates purchased from PerkinElmer (ProxiPlate_-384 Plus, Catalog no. 6008280).
The TR-FRET signal was measured in the presence both of the bio-H3K4me3 peptide and FLAG-JARID1B by detecting any H3K4me2/1 peptide produced in the assay system. Assays using only the bio-H3K4me2 peptide were served as a positive control. Robust enzymatic progressions were observed by using JARID1B at concentrations ranging from 10 to 30 nM. In a typical TR-FRET experiment, JARID1B was pre-incubated with or without 0.1 uM of test-compounds (containing 1% DMSO final) for 5 min. The enzymatic reactions were initiated by the addition of 500 nM biotinylated H3K4me3 peptide substrate plus 500 uM of 2-OG 25 uM Fe(II) and 2 mM ascorbate. The reaction buffer also contained 50 mM Hepes (pH7.5), 0.01% (v/v) Tween 20, and 50 mM NaCl. The reaction mixture was incubated for 30 min at room temperature before reading on an EnVision plate reader (PerkinElmer, Waltham, Mass.).

| inhibition at 0.1 µM [%] | Structure (SMILES) |
| --- | --- |
| < 20 | CCOC(=O)c1nc(-c2nccc3c(=O)[nH]cnc23)cs1 [Compound 62, ethyl 4-(4-oxo-3,4-dihydropyrido[3,4-d]pyrimidin-8-yl)thiazole-2-carboxylate] |
| 20 to 50 | O=c1[nH]cnc2c(-c3cnn(CCO)c3)nccc12 [Compound 63, 8-(1-(2-hydroxyethyl)-1H-pyrazol-4-yl)pyrido[3,4-d]pyrimidin-4(3H)-one] |
| 20 to 50 | O=c1[nH]cnc2c(-c3cnn(Cc4ccccc4)c3)nccc12 [Compound 64, 8-(1-benzyl-1H-pyrazol-4-yl)pyrido[3,4-d]pyrimidin-4(3H)-one] |
| 20 to 50 | O=c1[nH]cnc2c(-c3cnn(CCN4CCOCC4)c3)nccc12 [Compound 65, 8-(1-(2-morpholinoethyl)-1H-pyrazol-4-yl)pyrido[3,4-d]pyrimidin-4(3H)-one] |
| < 20 | O=c1[nH]c(COc2ccc(Cc3ccccc3)cc2)nc2c(-c3nccs3)nccc12 [Compound 66, 2-((4-benzylphenoxy)methyl)-8-(thiazol-2-yl)pyrido[3,4-d]pyrimidin-4(3H)-one] |
| 20 to 50 | O=c1[nH]c(COc2ccc(Cc3ccccc3)cc2)nc2c(-c3ccccn3)nccc12 [Compound 67, 2-((4-benzylphenoxy)methyl)-8-(pyridin-2-yl)pyrido[3,4-d]pyrimidin-4(3H)-one] |
| < 20 | Nc1ncc(-c2nccc3c(=O)[nH]c(COc4ccc(Cc5ccccc5)cc4)nc23)s1 [Compound 68, 8-(2-aminothiazol-5-yl)-2-((4-benzylphenoxy)methyl) pyrido[3,4-d]pyrimidin-4(3H)-one] |
| < 20 | Nc1ccn(-c2nccc3c(=O)[nH]c(COc4ccc(Cc5ccccc5)cc4)nc23)n1 [Compound 69, 8-(3-amino-1H-pyrazol-1-yl)-2-((4-benzylphenoxy)methyl) pyrido[3,4-d]pyrimidin-4(3H)-one] |
| 20 to 50 | Cn1cnc(-c2nccc3c(=O)[nH]c(COc4ccc(Cc5ccccc5)cc4)nc23)c1 [Compound 70, 2-((4-benzylphenoxy)methyl)-8-(1-methyl-1H-imidazol-4-yl)pyrido[3,4-d]pyrimidin-4(3H)-one] |
| ≥ 50 | Nc1nc(-c2nccc3c(=O)[nH]c(COc4ccc(Cc5ccccc5)cc4)nc23)cs1 [Compound 71, 8-(2-aminothiazol-4-yl)-2-((4-benzylphenoxy)methyl) pyrido[3,4-d]pyrimidin-4(3H)-one] |
| 20 to 50 | C=CCNc1nc(-c2nccc3c(=O)[nH]c(COc4ccc(Cc5ccccc5)cc4)nc23)cs1 [Compound 72, 8-(2-(allylamino)thiazol-4-yl)-2-((4-benzylphenoxy)methyl) pyrido[3,4-d]pyrimidin-4(3H)-one] |
| < 20 | O=c1[nH]c(COc2ccc(Cc3ccccc3)cc2)nc2c(-c3csc(Nc4ccccc4)n3)nccc12 [Compound 73, 2-((4-benzylphenoxy)methyl)-8-(2-(phenylamino)thiazol-4-yl)pyrido[3,4-d]pyrimidin-4(3H)-one] |
| 20 to 50 | O=c1[nH]c(COc2ccc(F)c(Cl)c2)nc2c(-c3nccs3)nccc12 [Compound 74, 2-((3-chloro-4-fluorophenoxy)methyl)-8-(thiazol-2-yl)pyrido[3,4-d]pyrimidin-4(3H)-one] |
| < 20 | Nc1ncc(-c2nccc3c(=O)[nH]c(COc4ccc(F)c(Cl)c4)nc23)s1 [Compound 75, 8-(2-aminothiazol-5-yl)-2-((3-chloro-4-fluorophenoxy)methyl) pyrido[3,4-d]pyrimidin-4(3H)-one] |
| < 20 | O=c1[nH]c(COc2ccc(F)c(Cl)c2)nc2c(-c3cc[nH]n3)nccc12 [Compound 76, 2-((3-chloro-4-fluorophenoxy)methyl)-8-(1H-pyrazol-3-yl)pyrido[3,4-d]pyrimidin-4(3H)-one] |
| 20 to 50 | Cn1cnc(-c2nccc3c(=O)[nH]c(COc4ccc(F)c(Cl)c4)nc23)c1 [Compound 77, 2-((3-chloro-4-fluorophenoxy)methyl)-8-(1-methyl-1H-imidazol-4-yl)pyrido[3,4-d]pyrimidin-4(3H)-one] |
| < 20 | O=c1[nH]c(COc2ccc(F)c(Cl)c2)nc2c(-c3ccc(N4CCOCC4)nc3)nccc12 [Compound 78, 2-((3-chloro-4-fluorophenoxy)methyl)-8-(6-morpholinopyridin-3-yl)pyrido[3,4-d]pyrimidin-4(3H)-one] |
| 20 to 50 | O=c1[nH]c(COc2ccc(F)c(Cl)c2)nc2c(-c3cnccn3)nccc12 [Compound 79, 2-((3-chloro-4-fluorophenoxy)methyl)-8-(pyrazin-2-yl)pyrido[3,4-d]pyrimidin-4(3H)-one] |
| 20 to 50 | O=c1[nH]c(COc2ccc(F)c(Cl)c2)nc2c(-c3ccccn3)nccc12 [Compound 80, 2-((3-chloro-4-fluorophenoxy)methyl)-8-(pyridin-2-yl)pyrido[3,4-d]pyrimidin-4(3H)-one] |
| ≥ 50 | O=c1[nH]c(COc2ccc(F)c(Cl)c2)nc2c(-c3csc(NCCO)n3)nccc12 [Compound 81, 2-((3-chloro-4-fluorophenoxy)methyl)-8-(2-((2-hydroxyethyl)amino)thiazol-4-yl)pyrido[3,4-d]pyrimidin-4(3H)-one] |
| ≥ 50 | O=c1[nH]c(COc2ccc(F)c(Cl)c2)nc2c(-c3csc(NCCN4CCOCC4)n3)nccc12 [Compound 82, 2-((3-chloro-4-fluorophenoxy)methyl)-8-(2-((2-morpholinoethyl)amino)thiazol-4-yl)pyrido[3,4-d]pyrimidin-4(3H)-one] |
| ≥ 50 | C[C@@H](O)CNc1nc(-c2nccc3c(=O)[nH]c(COc4ccc(F)c(Cl)c4)nc23)cs1 [Compound 83, (R)-2-((3-chloro-4-fluorophenoxy)methyl)-8-(2-((2-hydroxypropyl)amino)thiazol-4-yl)pyrido[3,4-d]pyrimidin-4(3H)-one] |
| ≥ 50 | C[C@H](O)CNc1nc(-c2nccc3c(=O)[nH]c(COc4ccc(F)c(Cl)c4)nc23)cs1 [Compound 84, (S)-2-((3-chloro-4-fluorophenoxy)methyl)-8-(2-((2-hydroxypropyl)amino)thiazol-4-yl)pyrido[3,4-d]pyrimidin-4(3H)-one] |
| ≥ 50 | O=c1[nH]c(COc2ccc(F)c(Cl)c2)nc2c(-c3csc(NCC4CCCO4)n3)nccc12 (stereo not shown) [Compound 85, 2-((3-chloro-4-fluorophenoxy)methyl)-8-(2-(((tetrahydrofuran-2-yl)methyl)amino)thiazol-4-yl)pyrido[3,4-d]pyrimidin-4(3H)-one] |
| ≥ 50 | COCCNc1nc(-c2nccc3c(=O)[nH]c(COc4ccc(F)c(Cl)c4)nc23)cs1 [Compound 86, 2-((3-chloro-4-fluorophenoxy)methyl)-8-(2-((2-methoxyethyl)amino)thiazol-4-yl)pyrido[3,4-d]pyrimidin-4(3H)-one] |
| ≥ 50 | CN(C)CCNc1nc(-c2nccc3c(=O)[nH]c(COc4ccc(F)c(Cl)c4)nc23)cs1 [Compound 87, 2-((3-chloro-4-fluorophenoxy)methyl)-8-(2-((2-(dimethylamino)ethyl)amino)thiazol-4-yl)pyrido[3,4-d]pyrimidin-4(3H)-one] |
| ≥ 50 | NCCNc1nc(-c2nccc3c(=O)[nH]c(COc4ccc(F)c(Cl)c4)nc23)cs1 [Compound 88, 8-(2-((2-aminoethyl)amino)thiazol-4-yl)-2-((3-chloro-4-fluorophenoxy)methyl) pyrido[3,4-d]pyrimidin-4(3H)-one] |
| ≥ 50 | CN1CCN(CCNc2nc(-c3nccc4c(=O)[nH]c(COc5ccc(F)c(Cl)c5)nc34)cs2)CC1 [Compound 89, 2-((3-chloro-4-fluorophenoxy)methyl)-8-(2-((2-(4-methylpiperazin-1-yl)ethyl)amino)thiazol-4-yl)pyrido[3,4-d]pyrimidin-4(3H)-one] |
